# Measured values from patent US8501400B2, “Methods and compositions for determining the pathogenic status of infectious agents” (priority 2007, dated 2013).
# Legend:
# H37Rv cells [1] = experiment: Sp6 SML-phage drug susceptibility test: SML generation (RT-PCR) in drug-treated Mtb; format: cell-based; conditions: 0.2 μg/ml INH, 2 μg/ml STR or 7.5 μg/ml EMB, Sp6 SML-phage MOI of 1 for 4 hr
# H37Rv cells [2] = experiment: Effect of mucolytic agents on phage infection and SML generation; format: cell-based, Mtb; conditions: equal volume of 0.5% NALC/2.9% NaCitrate or 200 mM TCEP/2.9% NaCitrate, one hour at 37° C., then SML-phage 4 hr; HiSalt conditions not given
# [3] = 16 hr treatment at 37° C. with 2 μg/ml RIF
# [4] = 40 hr treatment at 37° C. with 2 μg/ml RIF
compound,measurement,setting,value
"CC[C@@H](CO)NCCN[C@@H](CC)CO [EMB, Ethambutol]",SML generation after drug treatment,H37Rv cells [1]; [3],some detectable SML synthesis
same,SML generation after drug treatment,H37Rv cells [1]; [4],completely abolished
"NNC(=O)c1ccncc1 [INH, isoniazid]",SML generation after drug treatment,H37Rv cells [1]; [3],some detectable SML synthesis
same,SML generation after drug treatment,H37Rv cells [1]; [4],completely abolished
"CC(=O)N[C@@H](CS)C(=O)O [NALC, N-acetyl-L-cysteine]",Effect on phage infection and SML generation,H37Rv cells [2],no effect
"[H]/N=C(/N)N[C@H]1[C@H](O)[C@@H](O)[C@H](O[C@@H]2O[C@@H](C)[C@](O)(C=O)[C@H]2O[C@@H]2O[C@@H](CO)[C@H](O)[C@@H](O)[C@@H]2NC)[C@@H](N/C(N)=N\[H])[C@@H]1O [STR, Streptomycin]",SML generation after drug treatment,H37Rv cells [1]; [3],no detectable SML
same,SML generation after drug treatment,H37Rv cells [1]; [4],no detectable SML
"O=C(O)CCP(CCC(=O)O)CCC(=O)O [TCEP, Tris-Carboxyethylphosphine]",Effect on phage infection and SML generation,H37Rv cells [2],completely abolishes SML generation
